Results from patent US12590071B2, “Hydrazone derivative in which terminal amine group is substituted with aryl group or heteroaryl group, and use thereof” (KOREA INSTITUTE OF SCIENCE AND TECHNOLOGY, priority 2018, dated 2026).

Experiments:
[1] = Liver microsomal stability (human); format: in vitro ADME; conditions: amount of substrate remaining; 1 μM, 0.25 mg/mL microsomes, 37° C., 30 minutes
Protocol: (§1) The liver microsomal stability of the compounds prepared according to Examples 1 to 171 was confirmed. Specifically, four kinds of liver microsomes (human, dog, rat, and mouse, each 0.25 mg/mL), a 0.1 M phosphate buffer solution (pH 7.4), and the compounds with a concentration of 1 μM were added, respectively. Then the mixture was cultured in advance at 37° C. for 5 minutes, and then further cultured at 37° C. for 30 minutes together with the addition of an NADPH generation system solution. Thereafter, a reaction was terminated by adding an acetonitrile solution containing an internal standard material (chloropropamide), centrifugal separation (14,000 rpm, 4° C.) was performed for 5 minutes, and then a supernatant was injected into an LC-MS/MS system. The substrate drugs were analyzed to evaluate the metabolic stability for 8 kinds of compounds.
(§2) The amount of substrate remaining through the reaction was analyzed using the Shimadzu Nexera XR system and TSQ vantage (Thermo). Kinetex XB-C18 (2.1 mm×100 mm, 2.6 μm, particle size; Phenomenex, USA) was used in an HPLC column, and (A) distilled water containing 0.1% formic acid and (B) acetonitrile containing 0.1% formic acid were used as mobile phases. Analyst software (version 1.6.3) and Xcalibur (version 1.6.1) were used for data analysis.

CYP1A2 = biological target: T1, CYP1A2 (Homo sapiens, UniProt P05177); test: Inhibition of CYP coenzyme activity in human liver microsomes; format: in vitro ADME; conditions: compound 10 PM (so in the source); human liver microsomes 0.25 mg/mL; substrate phenacetin; 15 minutes
T1 construct: human liver microsomes (0.25 mg/mL); from tissue; host or cells: human liver microsomes
T1 sequence (P05177 1-516): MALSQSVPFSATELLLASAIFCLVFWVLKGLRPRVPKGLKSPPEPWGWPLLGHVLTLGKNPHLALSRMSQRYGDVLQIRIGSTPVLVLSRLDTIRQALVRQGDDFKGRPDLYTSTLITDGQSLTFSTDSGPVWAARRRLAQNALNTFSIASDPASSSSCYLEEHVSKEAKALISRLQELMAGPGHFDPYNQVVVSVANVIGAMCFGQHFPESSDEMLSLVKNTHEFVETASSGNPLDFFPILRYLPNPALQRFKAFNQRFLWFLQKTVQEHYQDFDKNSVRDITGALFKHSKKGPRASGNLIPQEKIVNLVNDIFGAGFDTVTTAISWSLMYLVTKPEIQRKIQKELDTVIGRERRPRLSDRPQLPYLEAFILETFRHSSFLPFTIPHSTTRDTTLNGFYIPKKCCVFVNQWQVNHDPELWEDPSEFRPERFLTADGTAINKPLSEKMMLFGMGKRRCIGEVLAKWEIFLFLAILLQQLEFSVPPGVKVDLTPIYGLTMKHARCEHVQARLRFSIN
Protocol: (§3) 5 The inhibition effects of CYP coenzyme activity by the compounds prepared according to Examples 1 to 171 was confirmed. Specifically, human liver microsomes (0.25 mg/mL), a 0.1 M phosphate buffer solution (pH 7.4), substrate drug cocktails (phenacetin 50 μM, diclofenac 10 μM, S-mephenytoin 100 μM, dextromethorphan 5 μM, and midazolam 2.5 μM) of five kinds of drug metabolism enzymes, and the compounds with a concentration of 0 μM or 10 PM were added, respectively. Then the mixture was cultured in advance at 37° C. for 5 minutes, and then further cultured at 37° C. for 15 minutes together with the addition of an NADPH generation system solution. Thereafter, a reaction was terminated by adding an acetonitrile solution containing an internal standard material (terfenadine), centrifugal separation (14,000 rpm, 4° C.) was performed for 5 minutes, and then a supernatant was injected into an LC-MS/MS system. Metabolites of the substrate drugs were simultaneously analyzed to evaluate the drug metabolism inhibition ability.
(§4) Metabolites of each CYP coenzyme indicator drug generated through the reaction were analyzed using the Shimadzu Nexera XR system and TSQ vantage (Thermo). Kinetex C18 (2.1 mm×100 mm, 2.6 μm, particle size; Phenomenex, USA) was used in an HPLC column, and (A) distilled water containing 0.1% formic acid and (B) acetonitrile containing 0.1% formic acid were used as mobile phases, and the gradient program shown in Table 2 was applied.
(§5) The generated metabolites were quantified using an MRM (multiple reaction monitoring) quantification mode, and Xcalibur (version 1.6.1) was used for data analysis.

CYP2C9 = biological target: T2, CYP2C9 (Homo sapiens, UniProt P11712); test: as above; format: in vitro ADME; conditions: compound 10 PM (so in the source); human liver microsomes 0.25 mg/mL; substrate diclofenac; 15 minutes
T2 construct: human liver microsomes (0.25 mg/mL); from tissue; host or cells: human liver microsomes
Protocol: as §3, §4, §5

CYP2D6 = biological target: T3, CYP2D6 (Homo sapiens, UniProt P10635); test: as above; format: in vitro ADME; conditions: compound 10 PM (so in the source); human liver microsomes 0.25 mg/mL; substrate dextromethorphan; 15 minutes
T3 construct: human liver microsomes (0.25 mg/mL); from tissue; host or cells: human liver microsomes
Protocol: as §3, §4, §5

CYP2C19 = biological target: T4, CYP2C19 (Homo sapiens, UniProt P33261); test: as above; format: in vitro ADME; conditions: compound 10 PM (so in the source); human liver microsomes 0.25 mg/mL; substrate S-mephenytoin; 15 minutes
T4 construct: human liver microsomes (0.25 mg/mL); from tissue; host or cells: human liver microsomes
Protocol: as §3, §4, §5

[2] = Liver microsomal stability (dog); format: in vitro ADME; conditions: amount of substrate remaining; 1 μM, 0.25 mg/mL microsomes, 37° C., 30 minutes
Protocol: as §1, §2

tau protein = biological target: T5, tau protein (Homo sapiens, UniProt P10636); test: Tau protein aggregation inhibition in tau-BiFC cell model; format: cell-based; conditions: tau-BiFC cells treated together with Forskolin, 48 hours
T5 construct: expressed in transfected cells
Procedure, shortened: (§6)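 Tau-BiFC cells co-treated 48 h with Forskolin ([…]) and compound at 0.03–30 μM. BiFC fluorescence quantified by imaging, IC50 by nonlinear regression; cytotoxicity as Hoechst-stained nuclei count relative to Forskolin-only wells (100% survival).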

[3] = Liver microsomal stability (mouse); format: in vitro ADME; conditions: amount of substrate remaining; 1 μM, 0.25 mg/mL microsomes, 37° C., 30 minutes
Protocol: as §1, §2

Tau-BiFC cells = test: Cytotoxicity (cell survival rate) in tau-BiFC cells; conditions: group treated with Forskolin alone = 100%
Procedure, shortened: as §6

CYP3A4 = biological target: T6, CYP3A4 (Homo sapiens, UniProt P08684); test: Inhibition of CYP coenzyme activity in human liver microsomes; format: in vitro ADME; parameters: scale not given here; conditions: compound 10 PM (so in the source); human liver microsomes 0.25 mg/mL; substrate midazolam; 15 minutes
T6 construct: human liver microsomes (0.25 mg/mL); from tissue; host or cells: human liver microsomes
Protocol: as §3, §4, §5

[4] = Liver microsomal stability (rat); format: in vitro ADME; conditions: amount of substrate remaining; 1 μM, 0.25 mg/mL microsomes, 37° C., 30 minutes
Protocol: as §1, §2

T4 sequence (P33261 whole entry): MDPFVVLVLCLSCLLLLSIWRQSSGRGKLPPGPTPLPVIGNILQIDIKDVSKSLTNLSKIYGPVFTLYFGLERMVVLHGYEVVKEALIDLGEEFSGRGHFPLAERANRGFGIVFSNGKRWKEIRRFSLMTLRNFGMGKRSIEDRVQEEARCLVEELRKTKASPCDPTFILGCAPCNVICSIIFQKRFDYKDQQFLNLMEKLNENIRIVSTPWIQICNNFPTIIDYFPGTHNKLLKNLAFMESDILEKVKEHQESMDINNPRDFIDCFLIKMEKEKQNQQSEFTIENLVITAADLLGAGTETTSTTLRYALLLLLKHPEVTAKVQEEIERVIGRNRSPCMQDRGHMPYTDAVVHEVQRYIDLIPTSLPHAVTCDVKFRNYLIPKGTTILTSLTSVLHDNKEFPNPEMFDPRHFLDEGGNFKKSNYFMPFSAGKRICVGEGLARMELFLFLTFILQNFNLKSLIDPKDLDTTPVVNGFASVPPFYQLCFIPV
T3 sequence (P10635 whole entry): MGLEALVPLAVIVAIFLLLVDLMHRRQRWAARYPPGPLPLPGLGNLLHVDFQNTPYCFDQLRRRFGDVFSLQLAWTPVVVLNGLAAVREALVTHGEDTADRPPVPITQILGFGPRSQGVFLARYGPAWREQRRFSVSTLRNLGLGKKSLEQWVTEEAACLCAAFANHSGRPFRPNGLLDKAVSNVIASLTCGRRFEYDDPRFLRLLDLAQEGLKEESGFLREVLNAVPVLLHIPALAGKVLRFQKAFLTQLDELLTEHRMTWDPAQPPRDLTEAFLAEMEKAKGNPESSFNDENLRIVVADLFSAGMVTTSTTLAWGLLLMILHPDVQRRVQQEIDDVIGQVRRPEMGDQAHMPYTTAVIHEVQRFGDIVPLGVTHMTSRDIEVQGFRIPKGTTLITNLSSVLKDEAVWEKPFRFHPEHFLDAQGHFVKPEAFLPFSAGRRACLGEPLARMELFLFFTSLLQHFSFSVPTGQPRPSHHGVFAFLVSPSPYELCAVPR
T6 sequence (P08684 whole entry): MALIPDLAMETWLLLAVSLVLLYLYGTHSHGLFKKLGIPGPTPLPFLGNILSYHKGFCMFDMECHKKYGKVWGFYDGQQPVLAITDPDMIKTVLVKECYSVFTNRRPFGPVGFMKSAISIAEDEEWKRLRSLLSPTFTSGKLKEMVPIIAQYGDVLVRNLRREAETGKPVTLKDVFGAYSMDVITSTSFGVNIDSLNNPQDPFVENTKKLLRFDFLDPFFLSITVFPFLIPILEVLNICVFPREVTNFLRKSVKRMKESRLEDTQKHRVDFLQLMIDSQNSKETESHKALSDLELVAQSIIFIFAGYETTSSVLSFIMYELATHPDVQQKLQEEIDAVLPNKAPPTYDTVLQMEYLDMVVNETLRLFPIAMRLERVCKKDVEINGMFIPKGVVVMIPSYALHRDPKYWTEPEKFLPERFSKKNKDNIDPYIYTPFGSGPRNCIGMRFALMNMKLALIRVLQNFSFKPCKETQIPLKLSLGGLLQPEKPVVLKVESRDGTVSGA
T2 sequence (P11712 whole entry): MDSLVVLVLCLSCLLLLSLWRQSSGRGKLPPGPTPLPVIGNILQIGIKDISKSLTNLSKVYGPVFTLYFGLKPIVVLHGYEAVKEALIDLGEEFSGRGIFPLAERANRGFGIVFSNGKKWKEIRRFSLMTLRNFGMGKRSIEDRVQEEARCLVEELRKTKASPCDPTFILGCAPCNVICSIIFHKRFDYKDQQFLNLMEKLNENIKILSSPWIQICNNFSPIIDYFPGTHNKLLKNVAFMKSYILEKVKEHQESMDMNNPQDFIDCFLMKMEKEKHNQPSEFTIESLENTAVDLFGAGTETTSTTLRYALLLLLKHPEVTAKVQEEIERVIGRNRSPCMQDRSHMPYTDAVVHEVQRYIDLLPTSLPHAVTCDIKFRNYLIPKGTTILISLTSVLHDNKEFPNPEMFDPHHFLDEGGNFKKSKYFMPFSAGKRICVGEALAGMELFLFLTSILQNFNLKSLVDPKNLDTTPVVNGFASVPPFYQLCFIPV
T5 sequence (P10636 2-441 isoform P10636-8 limits assumed): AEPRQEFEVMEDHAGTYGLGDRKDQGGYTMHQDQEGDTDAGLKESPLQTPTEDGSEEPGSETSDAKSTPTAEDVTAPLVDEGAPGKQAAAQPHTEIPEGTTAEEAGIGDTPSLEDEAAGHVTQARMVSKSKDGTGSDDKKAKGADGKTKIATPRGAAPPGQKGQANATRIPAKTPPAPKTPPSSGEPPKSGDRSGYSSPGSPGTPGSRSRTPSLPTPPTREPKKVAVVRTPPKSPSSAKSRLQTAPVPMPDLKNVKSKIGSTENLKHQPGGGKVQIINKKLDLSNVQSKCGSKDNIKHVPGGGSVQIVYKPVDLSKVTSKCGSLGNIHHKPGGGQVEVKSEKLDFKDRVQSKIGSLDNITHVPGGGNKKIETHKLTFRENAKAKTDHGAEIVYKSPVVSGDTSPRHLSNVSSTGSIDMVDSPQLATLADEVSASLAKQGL

| SMILES | liver microsomal stability, Human (%) [1] [%] | inhibition effects of CYP coenzyme activity, CYP1A2 (CYP1A2) | inhibition effects of CYP coenzyme activity, CYP2C9 (CYP2C9) | inhibition effects of CYP coenzyme activity, CYP2D6 (CYP2D6) | inhibition effects of CYP coenzyme activity, CYP2C19 (CYP2C19) | liver microsomal stability, Dog (%) [2] [%] | IC50 (tau protein) [nM] | liver microsomal stability, Mouse (%) [3] [%] | Cell survival rate (% @ 10 μM) (Tau-BiFC cells) [%] | inhibition effects of CYP coenzyme activity, CYP3A4 (CYP3A4) | liver microsomal stability, Rat (%) [4] [%] |
| --- | --- | --- | --- | --- | --- | --- | --- | --- | --- | --- | --- |
| Cn1cc2c(-c3ccc(NN=C(C#N)C#N)cc3)cccc2n1 [Compound 55, (4-(2-methyl-2H-indazol-4-yl)phenyl)carbonohydrazonoyl dicyanide] | 70 | 66.9 | 59.5 | >100 | 86 | 85.6 | 1000 | 71.2 | 120.1 | 87.6 | 60.8 |
| N#CC(C#N)=NNc1ccc2scnc2c1 [Compound 61, benzo[d]thiazol-5-ylcarbonohydrazonoyl dicyanide] | 70.4 | 45.1 | 75.5 | >100 | 93.6 | 32.6 | 3100 | 33.5 | 111.7 | 90.1 | 66.2 |
| Cn1ncc2ccc(NN=C(C#N)C#N)cc21 [Compound 63, (1-methyl-1H-indazol-6-yl)carbonohydrazonoyl dicyanide] | 87.4 | 43.3 | 84.2 | >100 | >100 | 82.6 | 740 | 9.5 | 111.4 | >100 | 72.1 |
| N#CC(C#N)=NNc1ccc2[nH]ncc2c1 [Compound 69, (1H-indazol-5-yl)carbonohydrazonoyl dicyanide] | 97.6 | 80.1 | 16.6 | >100 | 82.1 | 71.9 | 190 | 34.2 | 204.7 | 95.2 | 64.4 |
| N#CC(C#N)=NNc1cnc2[nH]ccc2c1 [Compound 72, (1H-pyrrolo[2,3-b]pyridin-5-yl)carbonohydrazonoyl dicyanide] | 86.3 | 85.8 | 88.7 | 98.9 | 97.8 | 84.8 | 35 | 58.6 | 89.5 | >100 | 72.8 |
| N#CC(C#N)=NNc1cnc2[nH]cc(Cl)c2c1 [Compound 83, (3-chloro-1H-pyrrolo[2,3-b]pyridin-5-yl)carbonohydrazonoyl dicyanide] | 64.1 | 47.7 | 51 | 91.1 | 96.4 | 31.9 | 300 | 11 | 98 | 86.4 | 62.2 |
| N#CC(C#N)=NNc1ccc2nc(NC(=O)c3ccccc3O)sc2c1 [Compound 87, (2-(2-hydroxybenzamido)benzo[d]thiazol-6-yl)carbonohydrazonoyl dicyanide] | 82.1 | 77 | 53.5 | 83.6 | 86.4 | 80.6 | 400 | 83.1 | 75.3 | 62.7 | 73.9 |
